Test results: US20230340011A1 (Asteroid Therapeutics, priority 2022, published 2023)

Molecular target: SREBP-2 (Homo sapiens (Human), UniProt Q12772)
Experiment: In vitro assay SREBP-2: PathHunter U2OS SREBP-2 Nuclear Translocation Cell Line, U18666A-stimulated
Type: cell-based
Details: not given

| SMILES | IC50 |
| --- | --- |
| CNC(=O)O[C@@H](C)[C@H]1CC[C@H]2[C@@H]3CC=C4C[C@@H](O)CC[C@]4(C)[C@H]3CC[C@]12C [Example 243, (1S)-1-[(1S,3aS,3bS,7S,9aR,9bS,11aS)-7-hydroxy-9a,11a-dimethyl-1H,2H,3H,3aH,3bH,4H,6H,7H,8H,9H,9aH,9bH,10H,11H,11aH-cyclopenta[a]phenanthren-1-yl]ethyl N-methylcarbamate] | < 250 nM |

Same assay, conditions: PathHunter U2OS SREBP-2 nuclear translocation cells, U18666A 10 μM, overnight (16 hours)

| SMILES | IC50 |
| --- | --- |
| C[C@H](OC(=O)C(=O)N(C)C)[C@H]1CC[C@H]2[C@@H]3CC=C4C[C@@H](O)CC[C@]4(C)[C@H]3CC[C@]12C [Example 35, (S)-1-((3S,8S,9S,10R,13S,14S,17S)-3-hydroxy-10,13-dimethyl-2,3,4,7,8,9,10,11,12,13,14,15,16,17-tetradecahydro-1H-cyclopenta[a]phenanthren-17-yl)ethyl 2-(dimethylamino)-2-oxoacetate] | 250 to 1000 nM |
| C[C@H](CCC(=O)N1CC[C@H](NC(=O)c2cnccn2)C1)[C@H]1CC[C@H]2[C@@H]3CC=C4C[C@@H](O)CC[C@]4(C)[C@H]3CC[C@]12C [Example 529, N—((S)-1-((R)-4-((3S,8S,9S,10R,13R,14S,17R)-3-hydroxy-10,13-dimethyl-2,3,4,7,8,9,10,11,12,13,14,15,16,17-tetradecahydro-1H-cyclopenta[a]phenanthren-17-yl)pentanoyl)pyrrolidin-3-yl)pyrazine-2-carboxamide] | < 250 nM |
| CCC1(O)CCN(C(=O)CCC[C@H]2CC[C@H]3[C@@H]4CC=C5C[C@@H](O)CC[C@]5(C)[C@H]4CC[C@]23C)CC1 [Example 370, 1-(4-ethyl-4-hydroxypiperidin-1-yl)-4-((3S,8S,9S,10R,13R,14S,17S)-3-hydroxy-10,13-dimethyl-2,3,4,7,8,9,10,11,12,13,14,15,16,17-tetradecahydro-1H-cyclopenta[a]phenanthren-17-yl)butan-1-one] | 250 to 1000 nM |
| C[C@H](CCC(=O)Nc1ccc(C(N)=O)cc1)[C@H]1CC[C@H]2[C@@H]3CC=C4C[C@@H](O)CC[C@]4(C)[C@H]3CC[C@]12C [Example 556, 4-((R)-4-((3S,8S,9S,10R,13R,14S,17R)-3-hydroxy-10,13-dimethyl-2,3,4,7,8,9,10,11,12,13,14,15,16,17-tetradecahydro-1H-cyclopenta[a]phenanthren-17-yl)pentanamido)benzamide] | < 250 nM |
| C[C@H](CCc1ncccc1C(C)(C)O)[C@H]1CC[C@H]2[C@@H]3CC=C4C[C@@H](O)CC[C@]4(C)[C@H]3CC[C@]12C [Example 456, (3S,8S,9S,10R,13R,14S,17R)-17-((R)-4-(3-(2-hydroxypropan-2-yl)pyridin-2-yl)butan-2-yl)-10,13-dimethyl-2,3,4,7,8,9,10,11,12,13,14,15,16,17-tetradecahydro-1H-cyclopenta[a]phenanthren-3-ol] | < 250 nM |
| CNC(=O)N[C@H]1CCN(C(=O)CC[C@@H](C)[C@H]2CC[C@H]3[C@@H]4CC=C5C[C@@H](O)CC[C@]5(C)[C@H]4CC[C@]23C)C1 [Example 533, 1-((S)-1-((R)-4-((3S,8S,9S,10R,13R,14S,17R)-3-hydroxy-10,13-dimethyl-2,3,4,7,8,9,10,11,12,13,14,15,16,17-tetradecahydro-1H-cyclopenta[a]phenanthren-17-yl)pentanoyl)pyrrolidin-3-yl)-3-methylurea] | < 250 nM |
| C[C@H](CC[C@](O)(C1CC1)C(F)(F)F)[C@H]1CC[C@H]2[C@@H]3CC=C4C[C@@](C)(O)CC[C@]4(C)[C@H]3CC[C@]12C [Example 368, (3S,8S,9S,10R,13R,14S,17R)-17-((2R,5S)-5-cyclopropyl-6,6,6-trifluoro-5-hydroxyhexan-2-yl)-3,10,13-trimethyl-2,3,4,7,8,9,10,11,12,13,14,15,16,17-tetradecahydro-1H-cyclopenta[a]phenanthren-3-ol] | 250 to 1000 nM |
| C[C@H](CCC(=O)N1CCC[C@H](Oc2cnn(C)c2)C1)[C@H]1CC[C@H]2[C@@H]3CC=C4C[C@@H](O)CC[C@]4(C)[C@H]3CC[C@]12C [Example 517, (4R)-4-[(1R,3aS,3bS,7S,9aR,9bS,11aR)-7-hydroxy-9a,11a-dimethyl-1H,2H,3H,3aH,3bH,4H,6H,7H,8H,9H,9aH,9bH,10H,11H,11aH-cyclopenta[a]phenanthren-1-yl]-1-[(3S)-3-[(1-methyl-1H-pyrazol-4-yl)oxy]piperidin-1-yl]pentan-1-one] | < 250 nM |
| C=CCN1C[C@H]2CON(C(=O)CC[C@@H](C)[C@H]3CC[C@H]4[C@@H]5CC=C6C[C@@H](O)CC[C@]6(C)[C@H]5CC[C@]34C)[C@H]2C1 [Example 45, (R)-1-((3aR,6aR)-5-allylhexahydro-1H-pyrrolo[3,4-c]isoxazol-1-yl)-4-((3S,8S,9S,10R,13R,14S,17R)-3-hydroxy-10,13-dimethyl-2,3,4,7,8,9,10,11,12,13,14,15,16,17-tetradecahydro-1H-cyclopenta[a]phenanthren-17-yl)pentan-1-one] | 250 to 1000 nM |
| C[C@H](CCC(=O)N(C)C)[C@H]1CC[C@H]2[C@@H]3CC=C4C[C@H](O)CC[C@]4(C)[C@H]3CC[C@]12C [Example 122, (R)-4-((3R,8S,9S,10R,13R,14S,17R)-3-hydroxy-10,13-dimethyl-2,3,4,7,8,9,10,11,12,13,14,15,16,17-tetradecahydro-1H-cyclopenta[a]phenanthren-17-yl)-N,N-dimethylpentanamide] | > 10000 nM |
| CNC(=O)c1cccc(OC[C@@H](C)[C@H]2CC[C@H]3[C@@H]4CC=C5C[C@@H](O)CC[C@]5(C)[C@H]4CC[C@]23C)n1 [Example 256, 6-((S)-2-((3S,8S,9S,10R,13S,14S,17R)-3-hydroxy-10,13-dimethyl-2,3,4,7,8,9,10,11,12,13,14,15,16,17-tetradecahydro-1H-cyclopenta[a]phenanthren-17-yl)propoxy)-N-methylpicolinamide] | 250 to 1000 nM |
| CC(=O)N(C)C1CN(C(=O)CC[C@@H](C)[C@H]2CC[C@H]3[C@@H]4CC=C5C[C@@H](O)CC[C@]5(C)[C@H]4CC[C@]23C)C1 [Example 325, N-(1-((R)-4-((3S,8S,9S,10R,13R,14S,17R)-3-hydroxy-10,13-dimethyl-2,3,4,7,8,9,10,11,12,13,14,15,16,17-tetradecahydro-1H-cyclopenta[a]phenanthren-17-yl)pentanoyl)azetidin-3-yl)-N-methylacetamide] | 250 to 1000 nM |
| C[C@H](CCC(=O)N1CC[C@H](NC(=O)N(C)C)C1)[C@H]1CC[C@H]2[C@@H]3CC=C4C[C@@H](O)CC[C@]4(C)[C@H]3CC[C@]12C [Example 534, 3-((S)-1-((R)-4-((3S,8S,9S,10R,13R,14S,17R)-3-hydroxy-10,13-dimethyl-2,3,4,7,8,9,10,11,12,13,14,15,16,17-tetradecahydro-1H-cyclopenta[a]phenanthren-17-yl)pentanoyl)pyrrolidin-3-yl)-1,1-dimethylurea] | < 250 nM |
| CON(C(=O)CC[C@@H](C)[C@H]1CC[C@H]2[C@@H]3CC=C4C[C@@H](O)CC[C@]4(C)[C@H]3CC[C@]12C)C1CC1 [Example 36, (R)—N-cyclopropyl-4-((3S,8S,9S,10R,13R,14S,17R)-3-hydroxy-10,13-dimethyl-2,3,4,7,8,9,10,11,12,13,14,15,16,17-tetradecahydro-1H-cyclopenta[a]phenanthren-17-yl)-N-methoxypentanamide] | 250 to 1000 nM |
